# Key:
# [1] = Phosphate-buffered saline (PBS) solubility of compounds; format: physicochemical; conditions: aqueous buffer, thermodynamic from solid, PBS pH 7.5, 0.5 mg/mL, vortexed 90 min, filtered, LC-MS/MS, read-out: Solubility Range
# Description: PBS solutions (pH 7.5) were prepared according to the following compositions and stored at 4° C. Test compounds were dissolved in PBS (pH 7.5) at 0.5 mg/mL and vortexed for 90 min. The PBS solution was sequentially filtered through a 0.45, 1.2, […] syringe filter. Concentration of test compounds were determined using LC-MS/MS with appropriate dilution of the samples.
# C57BL/6 female mice = assay: Scopolamine induced tear volume reduction model; format: in vivo, mouse; conditions: scopolamine-injected mice, ophthalmic solution topically on both eyes 3 times a day, phenol red thread; average if evaluated twice
# Summary of the method: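 Seven-week-old female C57BL/6 mice received scopolamine (0.2 ml of 2.5 mg/mL) s.c. 3 times daily; test compounds in PBS with 1% surfactant applied topically to both eyes 3 times daily. Tear volume measured by phenol red thread length before dosing and 1 h after last administration; duplicate evaluations averaged.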
# [2] = target: T1, Human recombinant PDE4A1A (Homo sapiens, UniProt P27815); assay: Human phosphodiesterase 4 (PDE4) inhibition, PDE4A1A; format: biochemical; conditions: read-out: % inhibition range at 10 uM PDE4A1A; 10 uM test compound
# T1 construct: purchased BPS Bioscience; host or cells: insect Sf9 cells
# T1 sequence (P27815 1-647 isoform P27815-4): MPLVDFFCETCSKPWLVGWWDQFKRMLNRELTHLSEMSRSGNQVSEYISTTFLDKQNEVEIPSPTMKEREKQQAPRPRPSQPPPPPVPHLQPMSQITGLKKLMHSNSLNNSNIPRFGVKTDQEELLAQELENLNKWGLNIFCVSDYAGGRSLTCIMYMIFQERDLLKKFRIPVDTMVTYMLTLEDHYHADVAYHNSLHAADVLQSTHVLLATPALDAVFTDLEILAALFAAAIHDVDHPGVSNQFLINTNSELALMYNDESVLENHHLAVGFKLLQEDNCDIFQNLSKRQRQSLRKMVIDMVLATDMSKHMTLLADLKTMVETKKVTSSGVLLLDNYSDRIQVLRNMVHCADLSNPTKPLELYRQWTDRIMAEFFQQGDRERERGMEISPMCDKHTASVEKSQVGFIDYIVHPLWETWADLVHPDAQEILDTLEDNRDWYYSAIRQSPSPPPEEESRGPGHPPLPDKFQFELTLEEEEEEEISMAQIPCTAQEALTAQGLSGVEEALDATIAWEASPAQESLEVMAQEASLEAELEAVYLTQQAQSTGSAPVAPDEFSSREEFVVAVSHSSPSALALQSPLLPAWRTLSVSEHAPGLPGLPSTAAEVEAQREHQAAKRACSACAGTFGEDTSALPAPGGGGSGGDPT
# Description: (§1) […] Human recombinant PDE4A1A, PDE4B 1, PDE4C1 and PDE4D2 are respectively expressed in each host cell (insect Sf9 cells, BPS Bioscience). Preincubation of 10 μM test compounds or vehicle was proceeded with 20 ng/ml PDE4A1A or 4 ng/ml PDE4B 1 or 8 ng/ml PDE4C1 or 5 ng/ml PDE4D2 enzyme in Tris-HCl buffer pH 7.2 for 15 minutes at 25° C. 100 nM fluorescein (FAM) labeled cAMP for another 30 minutes incubation period was added in order to initiate the enzymatic reaction and addition of IMAP binding solution was followed for its termination. Specifically, IMAP complexes with phosphate groups on nucleotide monophosphate generated from cyclic nucleotides through PDE activity. The amount of complex formed is determined by reading spectrofluorimetrical signal at 470 nm/525 nm.
# [3] = target: T2, Human recombinant PDE4B 1 (Homo sapiens, UniProt Q07343); assay: Human phosphodiesterase 4 (PDE4) inhibition, PDE4B 1; format: biochemical; conditions: read-out: % inhibition range at 10 uM PDE4B1; 10 uM test compound
# T2 construct: purchased BPS Bioscience; host or cells: insect Sf9 cells
# T2 sequence (Q07343 whole entry): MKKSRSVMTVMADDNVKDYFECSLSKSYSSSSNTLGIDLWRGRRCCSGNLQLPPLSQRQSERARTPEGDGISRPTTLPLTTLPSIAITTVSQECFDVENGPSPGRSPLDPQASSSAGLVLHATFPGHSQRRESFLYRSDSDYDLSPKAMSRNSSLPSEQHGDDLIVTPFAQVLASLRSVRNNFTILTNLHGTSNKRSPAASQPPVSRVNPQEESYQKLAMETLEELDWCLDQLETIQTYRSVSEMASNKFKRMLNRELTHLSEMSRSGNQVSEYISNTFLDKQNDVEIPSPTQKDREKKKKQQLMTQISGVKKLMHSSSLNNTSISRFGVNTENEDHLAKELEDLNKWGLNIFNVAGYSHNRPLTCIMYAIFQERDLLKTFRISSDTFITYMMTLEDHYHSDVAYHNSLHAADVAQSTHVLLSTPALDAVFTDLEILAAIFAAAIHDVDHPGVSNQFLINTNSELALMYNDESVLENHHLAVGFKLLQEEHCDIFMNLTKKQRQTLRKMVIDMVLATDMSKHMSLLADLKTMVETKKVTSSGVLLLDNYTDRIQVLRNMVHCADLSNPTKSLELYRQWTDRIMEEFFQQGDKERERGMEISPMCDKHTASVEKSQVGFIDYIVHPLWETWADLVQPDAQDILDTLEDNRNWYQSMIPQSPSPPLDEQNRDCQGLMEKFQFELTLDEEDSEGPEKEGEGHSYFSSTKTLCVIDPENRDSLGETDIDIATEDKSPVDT
# Description: as §1
# Human recombinant PDE4C1 = target: T3, Human recombinant PDE4C1 (Homo sapiens, UniProt Q08493); assay: Human phosphodiesterase 4 (PDE4) inhibition, PDE4C1; format: biochemical; conditions: read-out: % inhibition range at 10 uM PDE4C1; 10 uM test compound
# T3 construct: purchased BPS Bioscience; host or cells: insect Sf9 cells
# T3 sequence (Q08493 whole entry): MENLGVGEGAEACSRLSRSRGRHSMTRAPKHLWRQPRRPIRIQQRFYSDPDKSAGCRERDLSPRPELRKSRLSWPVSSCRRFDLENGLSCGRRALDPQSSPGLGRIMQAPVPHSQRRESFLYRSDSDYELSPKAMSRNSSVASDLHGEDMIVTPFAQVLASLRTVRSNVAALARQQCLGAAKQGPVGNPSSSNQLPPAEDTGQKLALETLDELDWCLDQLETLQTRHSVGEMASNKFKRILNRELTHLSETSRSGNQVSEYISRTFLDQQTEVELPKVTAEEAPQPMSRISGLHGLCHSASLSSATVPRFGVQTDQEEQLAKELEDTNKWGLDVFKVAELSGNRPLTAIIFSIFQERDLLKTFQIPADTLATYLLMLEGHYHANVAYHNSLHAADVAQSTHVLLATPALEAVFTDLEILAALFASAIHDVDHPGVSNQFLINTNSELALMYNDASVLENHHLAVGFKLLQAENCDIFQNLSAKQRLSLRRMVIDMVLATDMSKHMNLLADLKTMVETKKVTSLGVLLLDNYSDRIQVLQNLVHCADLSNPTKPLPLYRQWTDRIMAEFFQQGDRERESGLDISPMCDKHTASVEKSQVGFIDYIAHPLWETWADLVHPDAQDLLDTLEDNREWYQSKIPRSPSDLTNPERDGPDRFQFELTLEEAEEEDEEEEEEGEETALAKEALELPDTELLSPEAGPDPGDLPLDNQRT
# Description: as §1
# Human recombinant PDE4D2 = target: T4, Human recombinant PDE4D2 (Homo sapiens, UniProt Q08499); assay: Human phosphodiesterase 4 (PDE4) inhibition, PDE4D2; format: biochemical; conditions: read-out: % inhibition range at 10 uM PDE4D2; 10 uM test compound
# T4 construct: purchased BPS Bioscience; host or cells: insect Sf9 cells
# T4 sequence (Q08499 303-809 limits assumed): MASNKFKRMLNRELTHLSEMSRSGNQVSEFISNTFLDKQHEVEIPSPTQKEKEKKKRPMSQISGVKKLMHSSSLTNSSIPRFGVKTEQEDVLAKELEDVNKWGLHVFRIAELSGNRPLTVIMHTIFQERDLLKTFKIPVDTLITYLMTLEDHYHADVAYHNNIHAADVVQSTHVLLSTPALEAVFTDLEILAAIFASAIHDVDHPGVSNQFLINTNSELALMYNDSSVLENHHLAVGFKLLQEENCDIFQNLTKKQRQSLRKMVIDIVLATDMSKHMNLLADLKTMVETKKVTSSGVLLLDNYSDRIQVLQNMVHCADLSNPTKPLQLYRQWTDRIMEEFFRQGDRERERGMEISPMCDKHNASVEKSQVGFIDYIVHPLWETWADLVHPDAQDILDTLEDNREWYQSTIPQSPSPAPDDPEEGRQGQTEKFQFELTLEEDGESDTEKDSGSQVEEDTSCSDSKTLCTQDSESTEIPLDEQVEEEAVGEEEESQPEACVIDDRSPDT
# Description: as §1
# human wild type-CFTR [4] = target: T5, human wild type-CFTR (Homo sapiens, UniProt P13569); assay: Short-circuit current measurement; format: cell-based; parameters: expressed in transfected cells; conditions: FRT cells expressing human wild type-CFTR; Forskolin 20 μM signal used as 100% activity; read-out: Short-circuit current measurement (EC50) Concentration range
# T5 sequence (P13569 whole entry): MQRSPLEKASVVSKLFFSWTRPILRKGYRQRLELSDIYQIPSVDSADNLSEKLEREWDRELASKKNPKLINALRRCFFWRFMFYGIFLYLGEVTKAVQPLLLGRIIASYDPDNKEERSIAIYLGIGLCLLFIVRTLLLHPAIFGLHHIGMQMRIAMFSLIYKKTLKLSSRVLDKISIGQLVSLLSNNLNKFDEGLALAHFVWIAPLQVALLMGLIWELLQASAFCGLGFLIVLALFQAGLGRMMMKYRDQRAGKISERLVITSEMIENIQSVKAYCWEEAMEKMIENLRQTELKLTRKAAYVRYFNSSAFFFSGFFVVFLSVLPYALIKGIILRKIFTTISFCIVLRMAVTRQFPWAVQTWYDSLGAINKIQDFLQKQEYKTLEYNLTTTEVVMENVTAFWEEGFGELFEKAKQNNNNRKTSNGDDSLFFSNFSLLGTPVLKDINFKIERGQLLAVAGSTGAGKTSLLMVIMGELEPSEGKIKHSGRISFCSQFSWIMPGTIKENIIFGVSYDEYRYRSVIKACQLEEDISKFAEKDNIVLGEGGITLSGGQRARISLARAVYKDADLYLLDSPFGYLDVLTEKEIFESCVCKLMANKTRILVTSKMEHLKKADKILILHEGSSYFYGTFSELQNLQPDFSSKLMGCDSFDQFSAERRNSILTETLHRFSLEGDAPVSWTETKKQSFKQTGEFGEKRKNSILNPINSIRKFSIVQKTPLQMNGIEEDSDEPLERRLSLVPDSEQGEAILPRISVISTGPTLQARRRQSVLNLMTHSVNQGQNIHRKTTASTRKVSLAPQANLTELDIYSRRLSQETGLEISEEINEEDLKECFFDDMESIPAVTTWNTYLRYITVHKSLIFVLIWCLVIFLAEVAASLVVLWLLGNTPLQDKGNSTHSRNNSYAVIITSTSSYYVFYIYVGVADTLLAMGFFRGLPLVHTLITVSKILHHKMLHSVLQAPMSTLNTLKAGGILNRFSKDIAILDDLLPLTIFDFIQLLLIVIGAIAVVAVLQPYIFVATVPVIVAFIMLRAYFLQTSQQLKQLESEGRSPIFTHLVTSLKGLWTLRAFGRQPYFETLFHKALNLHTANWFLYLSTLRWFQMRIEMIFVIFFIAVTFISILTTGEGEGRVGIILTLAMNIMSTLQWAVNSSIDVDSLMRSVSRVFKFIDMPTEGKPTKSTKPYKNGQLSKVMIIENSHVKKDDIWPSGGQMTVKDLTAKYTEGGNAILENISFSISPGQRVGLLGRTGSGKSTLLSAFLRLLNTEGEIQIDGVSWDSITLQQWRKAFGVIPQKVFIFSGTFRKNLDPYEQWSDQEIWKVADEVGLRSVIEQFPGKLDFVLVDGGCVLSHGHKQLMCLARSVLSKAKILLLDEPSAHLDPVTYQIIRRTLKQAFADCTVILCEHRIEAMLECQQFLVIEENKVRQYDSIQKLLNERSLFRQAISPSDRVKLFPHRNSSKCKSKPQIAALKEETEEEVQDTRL
# Summary of the method: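 FRT monolayers stably carrying human wild-type CFTR were mounted in Ussing chambers; forskolin, compounds and the inhibitor CFTRinh-172 went to apical and basolateral sides. Read-outs were apical membrane current and short-circuit current, recorded at 4 Hz.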
# human wild type-CFTR [5] = target: T5, human wild type-CFTR; assay: Cell-based YFP assay; parameters: expressed in transfected cells; host or cells: CHO-K1 (Chinese hamster ovary); conditions: CHO-K1 cells expressing human wild type-CFTR and YFP-H148Q/I152L; forskolin 20 μM = 100% activity; read-out: Cell-based YFP Assay (EC50) Concentration Range
# Summary of the method: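 I⁻-driven YFP fluorescence quenching at 37 °C: 2 s baseline, addition of 140 mM iodide solution, then 14 s of readings at 0.4 s intervals. Cells were CHO-K1 expressing human wild-type CFTR plus YFP-H148Q/I152L. EC50 derived from averaged triplicates.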
SMILES,solubility at 90 min [1],Ratio of tear volume (test compound to vehicle) (C57BL/6 female mice),inhibition at 10 µM [2],inhibition at 10 µM [3],inhibition at 10 µM (Human recombinant PDE4C1),inhibition at 10 µM (Human recombinant PDE4D2),EC50 (human wild type-CFTR [4]),EC50 (human wild type-CFTR [5])
"COc1ccc(-c2ccnc3cc(C(=O)NC45CCC(C(=O)N6CCN(C)CC6)(CC4)CC5)nn23)cc1OC [Compound 151, 7-(3,4-dimethoxyphenyl)-N-(4-(4-methylpiperazine-1-carbonyl)bicyclo[2.2.2]octan-1-yl)pyrazolo[1,5-a]pyrimidine-2-carboxamide]",> 10 µg/mL,1.40,> 80%,> 80%,> 80%,> 80%,0.2 to 2 µM,< 0.2 µM
"COc1ccc(-c2ccnc3cc(C(=O)Nc4ccc(N)cc4)nn23)cc1OC [Compound 257, N-(4-aminophenyl)-7-(3,4-dimethoxyphenyl)pyrazolo [1,5-a]pyrimidine-2-carboxamide]",< 0.1 µg/mL,1.16,> 80%,> 80%,> 80%,> 80%,0.2 to 2 µM,< 0.2 µM

# Reference: patent US20240199623A1 (ILDONG PHARMACEUTICAL CO., LTD., priority 2020, published 2024)
